Test results published in patent US11357780B2, “Methods and compositions relating to the inhibition of IP6K1” (THE CHILDREN'S MEDICAL CENTER CORPORATION, priority 2018, dated 2022).
Entries after “also recorded” stand apart in the source; their conditions may differ.

What was measured:
[1] = test system: neutrophils and platelets; experiment: Ex vivo neutrophil-platelet aggregate (NPA) formation, FACS; format: cell-based, mouse
Procedure: Neutrophil-platelet aggregation. Mouse and human neutrophils were isolated and purified as previously described (31). Whole blood was collected into ACD tubes and platelet-rich plasma was isolated by centrifuging twice at 100×g for 5 min. Neutrophils (0.5×106) and platelets (5×106) were incubated for 2 h at 37° C. with LPS in 1 ml Tyrode's buffer (Sigma) supplemented with 1% BSA. After incubation, mouse neutrophils and platelets were stained with CD11b, CD41, and Ly6G and analyzed by flow cytometry to detect NPAs. Human neutrophils and platelets were stained with CD66, CD16, and CD41. NPA % was calculated as the percentage of CD66+, CD16+ and CD41 triple-positive cells (NPAs) among all CD66+ and CD16+ cells.
Flow cytometry. Murine neutrophils and platelets were incubated as described above. Cells were then harvested, washed with ice-cold PBS, and stained with APC0-CD11b (eBioscience), PE-CY7-Ly6G (BD Bioscience), FITC-CD41 (eBioscience), and […] to detect leukocyte and platelet antigens. Samples were examined with a FACSCanto II™ flow cytometer (Becton Dickinson). Neutrophils were gated by their forward- and side-scatter characteristics and by their Ly-6G+/CD11b+ (neutrophil) expression pattern (30). Platelets were detected by CD41 staining NPAs were Ly-6G+CD41+. All data were analyzed using FlowJo™ software (TreeStar; FlowJo LLC).

[2] = test system: human primary neutrophils and platelets; experiment: NPA formation between human neutrophils and platelets; format: cell-based
Procedure: (§1) FIG. 6A: PolyP levels in platelets. Mice were treated with TNP or DMSO alone for 10 days (20 mg/kg body weight, once a day). The experiment was repeated three times and the data were pooled and analyzed together. Data shown are means±SEM (n=7 mice per group). FIG. 6B: LPS-induced polyP secretion in neutrophil-platelet co-cultures. Neutrophils (5×10^6) isolated from DMSO (N-DMSO) or TNP (N-TNP)-treated mice and platelets (1×10^9) isolated from DMSO (P-DMSO) or TNP (P-TNP)-treated mice were incubated in the presence of LPS (5 μg/mL) for 2 h at 37° C. Data shown are means±SEM of four experiments. FIG. 6C: LPS-induced NPA formation. Neutrophils and platelets were isolated from DMSO (untreated) and TNP-treated mice and incubated with LPS (1 μg/mL) for 2 h at 37° C. […] NPA formation was analyzed at 24 hr after the LPS instillation. […] FIG. 6H: Recruited neutrophils in alveolar spaces were quantified as volume fraction of the alveolar space using standard point-counting morphometry. […] FIG. 6I: Pulmonary edema formation was quantified as the percentage of edema area in the total parenchymal region using. […] FIG. 6J: Lung vascular permeability was evaluated by BALF total protein level. […] FIG. 6K: Lung wet weight-to-dry weight ratio was measured at 24 hr after E. coli instillation. […] NPA % was calculated as the percentage of CD66+, CD16+ and CD41 triple-positive cells (NPAs) among all CD66+ and CD16+ cells. […]

[3] = test system: PtdIns(3,4,5)P3 signaling; experiment: PtdIns(3,4,5)P3 signaling in human neutrophils; format: cell-based; settings: human neutrophils treated with TNP
[4] = test system: neutrophil-platelet co-cultures; experiment: LPS-induced polyP secretion in neutrophil-platelet co-cultures; format: cell-based, mouse; settings: cells from TNP-treated mice, LPS 5 μg/mL, 2 h, 37° C., vs DMSO-treated controls
Procedure: as §1

[5] = test system: LPS-induced lung inflammation; experiment: LPS-induced lung inflammation in mice; format: in vivo, mouse; settings: TNP-treated mice, 5 mg/kg LPS intratracheal, 24 hr
Procedure: Bacteria or LPS-induced acute pneumonia. After anesthesia with ketamine hydrochloride (100 mg/kg intraperitoneally (i.p.)) and xylazine (10 mg/kg i.p.), mouse tracheas were surgically exposed and a total volume of 40 μl of saline, a dose of 2×10^6 cfu of E. coli (strain 19138; American Type Culture Collection), a dose of 5×10^8 cfu of Stapyhlococcus aureus (strain 10390; American Type Culture Collection), or the indicated amount of LPS (LPS from E. coli O111:B4 or LPS from E. coli O157:H7; Sigma-Aldrich was instilled intratracheally via an angiocatheter inserted through the trachea and into the left bronchus. Colloidal carbon (1%) was included in the instillate to indicate deposition. […]
Neutrophil accumulation. […] The total number of cells in the BALF was counted by hemocytometry. […] The percentage of neutrophils in the whole population (% PMN) was determined accordingly. Total numbers of neutrophils (#PMN) recruited was calculated as follows: [#PMN]=[cell density]×volume×[% PMN]. Emigrated neutrophils in the alveolar air spaces were also quantified by morphometric analysis of tissue sections. Emigrated neutrophils in lung sections (5 mice/group) 24 h after infection were quantified using standard point-counting morphometry (7). […] At least three grids (300 points) were counted for each lung. […]

human platelets = experiment: PolyP levels in human platelets; format: cell-based; settings: TNP 20 μM, room temperature, 4 days
platelets = experiment: PolyP levels in platelets isolated from TNP-treated mice; format: in vivo, mouse; settings: platelets from mice treated with TNP 20 mg/kg once a day for 10 days, vs DMSO-treated controls
Procedure: as §1

[6] = test system: PtdIns(3,4,5)P3 signaling; experiment: PtdIns(3,4,5)P3 signaling (phospho-Akt western blot) in mouse neutrophils; format: cell-based
Procedure: Mice were treated with TNP for 10 days (20 mg/kg body weight, once a day). Bone marrow neutrophils were isolated and lysed. Total/phosphorylated Akt in cell lysates was detected by western blotting. Relative amounts of phosphorylated Akt were quantified with NIH ImageJ™ software. Data shown are means±SEM of four experiments. *p<0.05 vs. neutrophils isolated from mice treated with DMSO alone

E. coli = experiment: E. coli-induced bacterial pneumonia in mice; format: in vivo, mouse
Procedure: Bacteria or LPS-induced acute pneumonia. After anesthesia with ketamine hydrochloride (100 mg/kg intraperitoneally (i.p.)) and xylazine (10 mg/kg i.p.), mouse tracheas were surgically exposed and a total volume of 40 μl of saline, a dose of 2×10^6 cfu of E. coli (strain 19138; American Type Culture Collection), a dose of 5×10^8 cfu of Stapyhlococcus aureus (strain 10390; American Type Culture Collection), or the indicated amount of LPS (LPS from E. coli O111:B4 or LPS from E. coli O157:H7; Sigma-Aldrich was instilled intratracheally via an angiocatheter inserted through the trachea and into the left bronchus. Colloidal carbon (1%) was included in the instillate to indicate deposition. After surgery and wound closure, mice were suspended by their front legs to help deliver the instillate deep into the left lobe before being placed back into the cage with soft and warm bedding for recovery. Mice were euthanized by CO2 at each time point. For polyP treatment, Medium Chain Polyphosphate (p100) (Kerafast Inc) was injected intraperitoneally (50 μg/g body weight) 10 min after the instillation of LPS. For treatment with IP6K1 inhibitor TNP (N2-(m-(trifluoromethyl)benzyl) N6-(p-nitrobenzyl)purine), mice were injected intraperitoneally with TNP once a day (20 mg/kg body weight) for 10 days before the induction of lung inflammation. TNP (Tocris Bioscience) was dissolved in DMSO/Tween80/water (1/1/8) at a concentration of 2 mg/ml and was injected directly without dilution.
Neutrophil accumulation. WT and Ip6k1-KO mice were anesthetized and instilled with bacteria or LPS as described above. After 24 h, mice were euthanized by CO2. The chest cavity was opened and a catheter was tied to the trachea. Bronchoalveolar lavage (BAL) was performed (1 mL PBS/15 mM EDTA×10) in each group. The BAL fluid (BALF) was centrifuged at 450×g for 10 min. The total number of cells in the BALF was counted by hemocytometry. Differential cell counts were conducted on cytospin preparations stained with a modified Wright-Giemsa stain (Volu-Sol, Inc.). Neutrophils were identified by their lobular or segmented nuclei. The percentage of neutrophils in the whole population (% PMN) was determined accordingly. Total numbers of neutrophils (#PMN) recruited was calculated as follows: [#PMN]=[cell density]×volume×[% PMN]. Emigrated neutrophils in the alveolar air spaces were also quantified by morphometric analysis of tissue sections. Emigrated neutrophils in lung sections (5 mice/group) 24 h after infection were quantified using standard point-counting morphometry (7). Briefly, mice were euthanized and their hearts tied off to maintain pulmonary blood volume. Lungs were then excised and fixed by intratracheal instillation of Bouin's solution at a pressure of 23 cm H2O and embedded in paraffin. Five to 6 μm-thick sections were cut and stained with hematoxylin and eosin (H&E). Neutrophils could be easily recognized by their lobular or segmented nuclei under high magnification. A counting grid (10×10, covering 70,000 μm2 of the magnified field) was reflected onto the field of view using a drawing tube. Randomly selected fields of pneumonic peripheral lung largely free of non-capillary blood vessels and bronchioles or larger airways were examined. At least three grids (300 points) were counted for each lung. The relative volumes of the parenchymal regions occupied by emigrated neutrophils were calculated by investigators blinded to the identities of the mice and were expressed as a percentage of the total parenchymal region volume (including both tissue and air spaces).
BALF total protein levels and cytokine/chemokine levels. BALF samples were obtained from mice 24 h after E. coli challenge. BAL was performed with 1 ml cold PBS/15 mM EDTA flushed in and out three times. Protein concentrations were measured in BALF using the Bio-Rad protein assay reagent. A standard curve was constructed using BSA. […]

Molecule: HOE140
- LPS-induced NPA formation ([1]; neutrophils pretreated with HOE140 150 nM for 5 min): inhibited

Molecule: O=[N+]([O-])c1ccc(CNc2nc(NCc3cccc(C(F)(F)F)c3)nc3nc[nH]c23)cc1 [TNP, N2-(m-(trifluoromethyl)benzyl) N6-(p-nitrobenzyl)purine]
- NPA formation ([2]; TNP-treated neutrophils and untreated platelets): unaltered
- LPS-induced NPA formation ([2]; human primary neutrophils and platelets treated with TNP): suppressed
- LPS-induced ex vivo NPA formation ([1]; neutrophils and platelets from TNP-treated mice, LPS 1 μg/mL, 2 h): inhibited
- PtdIns(3,4,5)P3-mediated cellular functions [3]: elevated
- PtdIns(3,4,5)P3 signaling [3]: substantially enhanced
- LPS-elicited polyP secretion [4]: reduced
- infection-induced NPA formation in the lungs of live mice [5]: inhibited
- polyP levels in human platelets (human platelets): reduced
- intracellular polyP levels in platelets (platelets): reduced
- PtdIns(3,4,5)P3-mediated cellular functions ([6]; mouse neutrophils treated with TNP): elevated
- PtdIns(3,4,5)P3 signaling, assessed by phospho-Akt ([6]; mouse neutrophils, TNP 20 mg/kg once a day for 10 days, bone marrow neutrophils): substantially enhanced; also recorded: elevated
- bactericidal activity (bacterial killing in inflamed lungs) (E. coli; TNP 20 mg/kg i.p. once a day for 10 days before E. coli instillation): much improved
- edema formation (E. coli; TNP-treated mice): less edema formation
- neutrophil accumulation in the inflamed lungs, BALF neutrophil counts (E. coli; TNP-treated mice): suppressed
- neutrophil accumulation in the inflamed lungs, morphometric analysis of lung sections (E. coli; TNP-treated mice): suppressed
- total BALF protein levels (E. coli; TNP-treated mice): decreased
- pulmonary vascular permeability by lung wet-to-dry ratio (E. coli; TNP-treated mice, 24 hr after E. coli instillation): reduction

Molecule: LYS-BK
- NPA formation between IP6K1-deficient platelets and neutrophils ([1]; Lys-BK 1 μM together with HKa): could not restore NPA formation

B1: MIP2: a common proinflammatory cytokine (protein, UniProt P10889 28-100, looked up)
C-X-C motif chemokine 2: AVVASELRCQCLKTLPRVDFKNIQSLSVTPPGPHCAQTEVIATLKGGQKVCLDPEAPLVQKIIQKILNKGKAN
- NPA formation ([1]; MIP2 1 nM in place of LPS): failed to induce the same NPA formation
